# Measurements published in ChEMBL document CHEMBL1123319, “Synthesis and biological activity of 5-phenylselenenyl-substituted pyrimidine nucleosides” (J Med Chem, 1986).
# The source made the active and inactive calls. The rule behind the calls is not given here.
# Assays:
# [1] = tested on: Human alphaherpesvirus 1; assay: (§1) Compound was tested in mice for the cytotoxicity against the herpes simplex virus type 1 (strain F) in plaque; Inactive; format: organism-based; conditions: human alphaherpesvirus 1, in vivo
# [2] = target: Thymidylate synthase (Mus musculus) (UniProt P07607); assay: Compound was evaluated for its ability to inhibit tritium release using 1 uM [5-3H]-dCyd for the cellular enzyme assay.
# [3] = target: Thymidylate synthase (Mus musculus) (UniProt P07607); assay: compound was evaluated for its ability to inhibit tritium release using 1 uM [5-3H]-dUrd for the cellular enzyme assay; Inactive
# [4] = tested on: HL-60; assay: Anticancer activity was evaluated for the compound against parent promyelocytic leukemia cell line (HL-60-GHPRT+/dCK+); format: functional; conditions: Homo sapiens, read-out: ED50 (the source's name)
# [5] = species on record: Mus musculus; assay: as §1; format: functional, organism-based
# [6] = tested on: HL-60; assay: Anticancer activity of the compound against ara-C resistant promyelocytic leukemia cell line that is Cyd-kinase deficient (HL-60-HGPRT-/dCK-) is determined; format: functional; conditions: Homo sapiens, read-out: ED50 (the source's name)
# [7] = target: Thymidylate synthase (Mus musculus) (UniProt P07607); assay: Inhibition of thymidylate synthase in L1210 cells; format: cell-based
# [8] = tested on: HL-60; assay: Anticancer activity was evaluated for the compound against ara-C resistant promyelocytic leukemia cell line that is Cyd-kinase deficient (HL-60-HGPRT-/dCK-); format: functional; conditions: Homo sapiens, read-out: ID50 (the source's name)
# [9] = compound was evaluated for its ability to inhibit tritium release using 1 uM [5-3H]-dUrd for the cellular enzyme assay.; format: functional
# Sequence of Thymidylate synthase (Mus musculus) (P07607 whole entry, looked up): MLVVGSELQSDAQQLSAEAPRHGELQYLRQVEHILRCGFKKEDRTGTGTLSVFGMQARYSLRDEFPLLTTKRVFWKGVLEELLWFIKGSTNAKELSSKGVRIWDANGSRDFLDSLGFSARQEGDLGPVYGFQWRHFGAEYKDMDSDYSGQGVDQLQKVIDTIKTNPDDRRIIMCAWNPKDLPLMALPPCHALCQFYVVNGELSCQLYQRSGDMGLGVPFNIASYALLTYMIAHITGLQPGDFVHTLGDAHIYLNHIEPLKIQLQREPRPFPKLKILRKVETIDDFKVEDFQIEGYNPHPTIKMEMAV
smiles,measurement,setting,value
O=c1[nH]c(=O)n([C@H]2C[C@H](O)[C@@H](CO)O2)cc1[Se]c1ccccc1,LD50,[1],Not Active
same,ID50,[2],70 µM
same,ID50,[3],inactive
O=c1[nH]c(=O)n([C@@H]2O[C@H](CO)[C@@H](O)[C@@H]2O)cc1[Se]c1ccccc1,EC50,[4],88 µM
same,LD50,[5],inactive
Nc1ccn([C@@H]2O[C@H](CO)[C@@H](O)[C@@H]2O)c(=O)n1 [CYTARABINE],EC50,[4],0.047 µM
same,EC50,[6],30 µM
same,ED50,[7],0.03 µM
Nc1nc(=O)n([C@@H]2O[C@H](CO)[C@@H](O)[C@@H]2O)cc1[Se]c1ccccc1,IC50,[8],375 µM
same,ED50,[7],25 µM
same,ID50,[9],60 µM
